Measured values reported in PubChem BioAssay AID1919674.
pIC50: −log10 of the molar value.

Biological target: Solute carrier family 12 member 2 (Homo sapiens) (UniProt P55011)
Test: NKCC1 ion transport inhibition – HEK-293 overexpressing cells, thallium flux, dose response (AID 1919674)
Conditions: HEK-293 SLC12A2 OE, thallium flux fluorescence (FLIPR)

Sequence of Solute carrier family 12 member 2 (Homo sapiens) (P55011 whole entry, looked up): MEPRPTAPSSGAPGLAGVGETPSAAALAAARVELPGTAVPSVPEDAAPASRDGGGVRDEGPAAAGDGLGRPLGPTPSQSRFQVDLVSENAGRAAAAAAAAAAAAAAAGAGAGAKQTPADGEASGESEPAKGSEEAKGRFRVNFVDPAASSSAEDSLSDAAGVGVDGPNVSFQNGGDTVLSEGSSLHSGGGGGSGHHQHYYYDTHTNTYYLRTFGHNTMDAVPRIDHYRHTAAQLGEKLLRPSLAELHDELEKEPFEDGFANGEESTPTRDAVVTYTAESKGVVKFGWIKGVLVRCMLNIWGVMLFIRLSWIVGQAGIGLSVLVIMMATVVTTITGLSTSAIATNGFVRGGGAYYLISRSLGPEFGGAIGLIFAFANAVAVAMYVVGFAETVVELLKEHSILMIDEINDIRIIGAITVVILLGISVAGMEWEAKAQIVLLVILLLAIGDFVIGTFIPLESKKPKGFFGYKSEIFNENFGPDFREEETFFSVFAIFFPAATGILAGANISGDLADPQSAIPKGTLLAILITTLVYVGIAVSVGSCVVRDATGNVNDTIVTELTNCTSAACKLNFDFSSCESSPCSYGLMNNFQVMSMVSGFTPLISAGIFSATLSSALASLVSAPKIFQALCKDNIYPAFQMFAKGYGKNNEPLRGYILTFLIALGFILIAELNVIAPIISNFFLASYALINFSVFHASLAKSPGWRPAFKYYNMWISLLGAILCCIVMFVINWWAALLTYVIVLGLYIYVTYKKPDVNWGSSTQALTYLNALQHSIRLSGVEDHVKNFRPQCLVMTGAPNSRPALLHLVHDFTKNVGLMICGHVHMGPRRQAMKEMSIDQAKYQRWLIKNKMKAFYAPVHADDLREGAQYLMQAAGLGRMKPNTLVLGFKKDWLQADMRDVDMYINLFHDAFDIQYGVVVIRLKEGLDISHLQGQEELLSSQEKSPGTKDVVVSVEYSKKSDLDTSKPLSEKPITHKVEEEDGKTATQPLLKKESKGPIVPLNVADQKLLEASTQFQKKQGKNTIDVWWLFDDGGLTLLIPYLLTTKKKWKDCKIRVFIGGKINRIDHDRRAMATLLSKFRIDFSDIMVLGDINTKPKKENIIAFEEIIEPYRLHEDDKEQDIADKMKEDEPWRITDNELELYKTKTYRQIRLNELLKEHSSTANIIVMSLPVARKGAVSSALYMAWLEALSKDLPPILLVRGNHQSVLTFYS

[Tl+]
pIC50: 3.22
